Patent publication US20240327412A1, “FACTOR XIIA INHIBITORS” (KALVISTA PHARMACEUTICALS LIMITED, priority 2021, published 2024)

molecular target: T1, Human Factor XIIa (Homo sapiens, UniProt P00748); test: Determination of FXIIa inhibition (fluorogenic substrate H-DPro-Phe-Arg-AFC, IC50 assay); format: biochemical; details: substrate at Km concentration, 25° C.; category scale; read-out: Human FXII IC50 (nm)
T1 construct: Proteolytic cleavage of FXII to heavy and light chains of FXIIa dramatically increases catalytic activity; purchased Enzyme Research Laboratories
T1 sequence (P00748 373-615 limits assumed): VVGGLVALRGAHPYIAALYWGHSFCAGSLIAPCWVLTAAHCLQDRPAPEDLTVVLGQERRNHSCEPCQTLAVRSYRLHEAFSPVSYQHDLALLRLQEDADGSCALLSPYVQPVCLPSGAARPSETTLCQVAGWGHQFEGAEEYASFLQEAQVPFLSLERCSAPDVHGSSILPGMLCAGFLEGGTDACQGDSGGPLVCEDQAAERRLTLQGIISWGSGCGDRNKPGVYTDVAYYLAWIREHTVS
T1 sequence (P00748 20-372 partner limits assumed): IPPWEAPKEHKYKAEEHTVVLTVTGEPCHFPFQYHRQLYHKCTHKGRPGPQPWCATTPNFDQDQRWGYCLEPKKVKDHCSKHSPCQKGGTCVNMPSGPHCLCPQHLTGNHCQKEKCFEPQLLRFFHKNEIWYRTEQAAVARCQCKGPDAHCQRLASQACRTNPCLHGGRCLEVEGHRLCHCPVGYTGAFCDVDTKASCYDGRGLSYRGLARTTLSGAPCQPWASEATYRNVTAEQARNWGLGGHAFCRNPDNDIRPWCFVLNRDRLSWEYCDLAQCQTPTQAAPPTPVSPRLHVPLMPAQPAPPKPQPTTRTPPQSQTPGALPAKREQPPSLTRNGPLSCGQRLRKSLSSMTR
Description: In vitro inhibition of Factor XIIa was determined using an IC50 assay based on standard literature methods (see e.g Baeriswyl et al., ACS Chem. Biol., 2015, 10 (8) 1861; Bouckaert et al., European Journal of Medicinal Chemistry 110 (2016) 181). Human Factor XIIa (Enzyme Research Laboratories) was incubated at 25° C. with the fluorogenic substrate H-DPro-Phe-Arg-AFC (Peptide Protein Science) and various concentrations of the test compound. Protease activity was measured by monitoring the accumulation of liberated fluorescence from the substrate over 5 min at 25° C. The linear rate of fluorescence increase per minute was expressed as percentage (%) activity. The Km for the cleavage of the substrate by FXIIa was determined by standard transformation of the Michaelis-Menten equation. The compound inhibitor assays were performed at substrate Km concentration. IC50 values were calculated as the concentration of inhibitor giving 50% inhibition (IC50) of the uninhibited enzyme activity (100%).

Structure (SMILES) | IC50 [nM]
Cn1cc(Cl)c(OCC23CCOC(CNc4cccc5c(N)nccc45)(C2)C3)cc1=O [Example 10933, 4-((1-(((1-aminoisoquinolin-5-yl)amino)methyl)-2-oxabicyclo[3.1.1]heptan-5-yl)methoxy)-5-chloro-1-methylpyridin-2(1H)-one] | 1000 to 3000
CC(C)c1cc(OCC23CCOC(CNc4cccc5c(N)nccc45)(C2)C3)cc(=O)n1C [Example 10949, 4-((1-(((1-aminoisoquinolin-5-yl)amino)methyl)-2-oxabicyclo[3.1.1]heptan-5-yl)methoxy)-6-isopropyl-1-methylpyridin-2(1H)-one] | 300 to 1000
Nc1nccc2c(NCC34CC(COc5ccc6c(c5)CNC6=O)(C3)C4)cccc12 [Example 1133, 5-((3-(((1-aminoisoquinolin-5-yl)amino)methyl)bicyclo[1.1.1]pentan-1-yl)methoxy)isoindolin-1-one] | 100 to 300
c1cc2cc(NCC34CC(COc5ccn6ccnc6c5)(CCO3)C4)ccc2cn1 [Example 10958, N-((5-((imidazo[1,2-a]pyridin-7-yloxy)methyl)-2-oxabicyclo[3.1.1]heptan-1-yl)methyl)isoquinolin-6-amine] | 10000 to 40000
Nc1nccc2c(NCC34CC(COc5ccn(C(F)F)c(=O)c5)(CCO3)C4)cccc12 [Example 10975, 4-((1-(((1-aminoisoquinolin-5-yl)amino)methyl)-2-oxabicyclo[3.1.1]heptan-5-yl)methoxy)-1-(difluoromethyl)pyridin-2(1H)-one] | 300 to 1000
CCn1c(C)cc(OCC23CCOC(CNc4cccc5c(N)nccc45)(C2)C3)cc1=O [Example 10964, 4-((1-(((1-aminoisoquinolin-5-yl)amino)methyl)-2-oxabicyclo[3.1.1]heptan-5-yl)methoxy)-1-ethyl-6-methylpyridin-2(1H)-one] | 10 to 100
Cc1ccc(OCC23CCOC(CNc4cccc5c(N)nccc45)(C2)C3)nc1 [Example 10956, N5-((5-(((5-methylpyridin-2-yl)oxy)methyl)-2-oxabicyclo[3.1.1]heptan-1-yl)methyl)isoquinoline-1,5-diamine] | 1000 to 3000
Cc1cnc2ccc(OCC34COC(CNc5cccnc5)(C3)C4)cn12 [Example 6661, N-((4-(((3-methylimidazo[1,2-a]pyridin-6-yl)oxy)methyl)-2-oxabicyclo[2.1.1]hexan-1-yl)methyl)pyridin-3-amine] | 10000 to 40000
Nc1nccc2c(NCC34CC(COc5ccn6c(C(F)(F)F)nnc6c5)(CCO3)C4)cccc12 [Example 10961, N5-((5-(((3-(trifluoromethyl)-[1,2,4]triazolo[4,3-a]pyridin-7-yl)oxy)methyl)-2-oxabicyclo[3.1.1]heptan-1-yl)methyl)isoquinoline-1,5-diamine] | 300 to 1000
Nc1nccc2c(NCC34CC(COc5ccc6c(c5)CCNC6=O)(CCO3)C4)cccc12 [Example 10938, 6-((1-(((1-aminoisoquinolin-5-yl)amino)methyl)-2-oxabicyclo[3.1.1]heptan-5-yl)methoxy)-3,4-dihydroisoquinolin-1(2H)-one] | 300 to 1000
Cn1ccc(OCC23CN(C(=O)OC(C)(C)C)C(CNc4ccc5cnccc5c4)(C2)C3)cc1=O [Example 12045, tert-butyl 1-((isoquinolin-6-ylamino)methyl)-4-(((1-methyl-2-oxo-1,2-dihydropyridin-4-yl)oxy)methyl)-2-azabicyclo[2.1.1]hexane-2-carboxylate] | 10000 to 40000
Nc1nccc2c(NCC34CC(COc5ccn6c(C(F)(F)F)cnc6c5)(CCO3)C4)cccc12 [Example 10932, N5-((5-(((3-(trifluoromethyl)imidazo[1,2-a]pyridin-7-yl)oxy)methyl)-2-oxabicyclo[3.1.1]heptan-1-yl)methyl)isoquinoline-1,5-diamine] | 100 to 300
CC1(C)OC2(COc3cccc4c(N)nccc34)CC1(COc1ccn3ccnc3c1)C2 [Example 7702, 5-((4-((imidazo[1,2-a]pyridin-7-yloxy)methyl)-3,3-dimethyl-2-oxabicyclo[2.1.1]hexan-1-yl)methoxy)isoquinolin-1-amine] | 300 to 1000
Cc1cc(OCC23CCOC(CNc4cccc5c(N)nccc45)(C2)C3)ccn1 [Example 10953, N5-((5-(((2-methylpyridin-4-yl)oxy)methyl)-2-oxabicyclo[3.1.1]heptan-1-yl)methyl)isoquinoline-1,5-diamine] | 100 to 300
Nc1nccc2c(NCC34CC(COc5cc(C(F)(F)F)c6nccn6c5)(CO3)C4)cccc12 [Example 6630, N5-((4-(((8-(trifluoromethyl)imidazo[1,2-a]pyridin-6-yl)oxy)methyl)-2-oxabicyclo[2.1.1]hexan-1-yl)methyl)isoquinoline-1,5-diamine] | 100 to 300
Nc1nccc2c(NCC34CC(COc5cc6n(c(=O)c5)CCC6)(CCO3)C4)cccc12 [Example 10972, 7-((1-(((1-aminoisoquinolin-5-yl)amino)methyl)-2-oxabicyclo[3.1.1]heptan-5-yl)methoxy)-2,3-dihydroindolizin-5(1H)-one] | 10 to 100

Second part, the molecule after the results:

IC50 [nM] | Structure (SMILES)
10 to 100 | Cn1ccc(OCC23CC(CNc4cccc5c(N)nccc45)(CN2C(=O)Oc2ccccc2)C3)cc1=O [Example 13006, phenyl 4-(((1-aminoisoquinolin-5-yl)amino)methyl)-1-(((1-methyl-2-oxo-1,2-dihydropyridin-4-yl)oxy)methyl)-2-azabicyclo[2.1.1]hexane-2-carboxylate]
100 to 300 | Cn1ccc(OCC23CC(CNc4cccc5c(N)nccc45)(CN2)C3)cc1=O [Example 13007, 4-((4-(((1-aminoisoquinolin-5-yl)amino)methyl)-2-azabicyclo[2.1.1]hexan-1-yl)methoxy)-1-methylpyridin-2(1H)-one]
1 to 10 | COc1ccc(NC(=O)N2CC3(COc4ccn(C)c(=O)c4)CC2(CNc2cccc4c(N)nccc24)C3)cc1 [Example 12061, 1-(((1-Aminoisoquinolin-5-yl)amino)methyl)-N-(4-methoxyphenyl)-4-(((1-methyl-2-oxo-1,2-dihydropyridin-4-yl)oxy)methyl)-2-azabicyclo[2.1.1]hexane-2-carboxamide]
100 to 300 | Cn1ccc(OCC23CC(CNc4cccc5c(N)nccc45)(CN2CCCc2ccccc2)C3)cc1=O [Example 13015, 4-((4-(((1-aminoisoquinolin-5-yl)amino)methyl)-2-(3-phenylpropyl)-2-azabicyclo[2.1.1]hexan-1-yl)methoxy)-1-methylpyridin-2(1H)-one]
300 to 1000 | Cn1ccc(OCC23CC(CNc4cccc5c(N)nccc45)(CN2C(=O)CCc2ccccc2Cl)C3)cc1=O [Example 13017, 4-((4-(((1-aminoisoquinolin-5-yl)amino)methyl)-2-(3-(2-chlorophenyl)propanoyl)-2-azabicyclo[2.1.1]hexan-1-yl)methoxy)-1-methylpyridin-2(1H)-one]
10 to 100 | COc1ccc(CNC(=O)N2CC3(COc4ccn(C)c(=O)c4)CC2(CNc2cccc4c(N)nccc24)C3)cc1 [Example 12062, 1-(((1-aminoisoquinolin-5-yl)amino)methyl)-N-(4-methoxybenzyl)-4-(((1-methyl-2-oxo-1,2-dihydropyridin-4-yl)oxy)methyl)-2-azabicyclo[2.1.1]hexane-2-carboxamide]
10 to 100 | Cn1ccc(OCC23CN(C(=O)CCc4ccc5cccnc5c4)C(CNc4cccc5c(N)nccc45)(C2)C3)cc1=O [Example 12055, 4-((1-(((1-aminoisoquinolin-5-yl)amino)methyl)-2-(3-(quinolin-7-yl)propanoyl)-2-azabicyclo[2.1.1]hexan-4-yl)methoxy)-1-methylpyridin-2(1H)-one]
3000 to 10000 | Nc1nccc2c(NCC34CC(COc5ccn6ncnc6c5)(C3)C4)cccc12 [Example 1110, N5-((3-(([1,2,4]triazolo[1,5-a]pyridin-7-yloxy)methyl)bicyclo[1.1.1]pentan-1-yl)methyl)isoquinoline-1,5-diamine]
100 to 300 | Cn1ccc(OCC23CC(CNc4cccc5c(N)nccc45)(CN2C(=O)Oc2ccccc2Cl)C3)cc1=O [Example 13004, 2-chlorophenyl 4-(((1-aminoisoquinolin-5-yl)amino)methyl)-1-(((1-methyl-2-oxo-1,2-dihydropyridin-4-yl)oxy)methyl)-2-azabicyclo[2.1.1]hexane-2-carboxylate]
10 to 100 | Cn1ccc(OCC23CN(C(=O)CCc4ccc(=O)[nH]c4)C(CNc4cccc5c(N)nccc45)(C2)C3)cc1=O [Example 12054, 4-((1-(((1-aminoisoquinolin-5-yl)amino)methyl)-2-(3-(6-oxo-1,6-dihydropyridin-3-yl)propanoyl)-2-azabicyclo[2.1.1]hexan-4-yl)methoxy)-1-methylpyridin-2(1H)-one]
